Experimental data taken from patent publication EP2607478A1, “Phenanthroline treated MSC” (Universiteit Twente, priority 2011, dated 2013).

Key:
MSCs [1] = assay: Protein expression analysis (Luminex assay) of treated MSCs; format: cell-based, Human; conditions: primary MSCs, 2 days; for VEGF secretion / secretion of IL-8: 150 µM DFO or 200 µM PHE, measured in cell lysates; for secretion of IL-8: basic 15-25 pg/mL
Protocol: MSCs were seeded at 5000 cells/cm^2 in T25 flasks. […] After 2 days, cells were lysed with 250 µL RIPA buffer with addition of protease/phosphatase inhibitors (Roche). Total protein concentrations were determined using a BCA kit (Pierce) and 10 µg of total protein was used to determine concentrations of VEGF, IL-8, basic fibroblast growth factor (bFGF), […] stimulating factor (G-CSF) and epidermal growth factor (EGF) using a Luminex assay (Invitrogen) according to the manufacturer's protocol. Briefly, cells and standards were incubated with fluorescent beads, followed by incubation with a biotinylated detection antibody. After incubation with streptavidin-R-Phycoerythrin and washing, both the fluorescence of the coupled beads and the R-phycoerythrin were measured using a Luminex® FlexMap™.

MSCs [2] = assay: Gene expression analysis by real-time qPCR in treated MSCs; format: cell-based, Human; conditions: for expression of Il-8, VEGF, KDR and Foxc2: 2 days treatment, medium refreshed, 2 more days in basic medium (Figure 8); for VEGF expression: after 2 days of treatment and 2 more days of incubation with fresh medium (Figure 8)
Protocol: MSCs were seeded in triplicate in 6-well plates at 5000 cells/cm^2 and allowed to attach for 10-15 hours in proliferation medium. Upon reaching near confluency, cells were treated as described above. After 2 days of treatment and 2 subsequent days of incubation with fresh medium, cells were lysed immediately with TRIzol. RNA was isolated using a Bioke RNA II nucleospin RNA isolation kit (Machery Nagel) and RNA concentrations were measured using an ND100 spectrophotometer (Nanodrop technologies, USA). cDNA was synthesized from 100 ng of RNA, using iScript (BioRad) according to the manufacturer's protocol. For qualitative PCR, a master mix, containing distilled water, forward primer, reverse primer (Sigma Genosys), BSA, and SYBR green I mix (all from Invitrogen) was prepared. Real-time qPCR was performed in a Light-Cycler (Roche). Light-Cycler data was analyzed using the fit points method of Light-Cycler software. The baseline was set at the lower log-linear part above baseline noise and the crossing […] (Ct value) was determined. Ct values were normalized to the 18S housekeeping gene and delta Ct (Ct, control ― Ct, sample) was used to calculate the upregulation in gene expression (53).

male C57/BL6 mice = assay: In vivo murine matrigel plug assay; conditions: matrigel plug with DFO (150 uM) or PHE (200 uM), subcutaneous, 7 days, versus PBS
Protocol: In vivo angiogenesis analysis was performed using a matrigel plug assay in male C57/BL6 mice (age 8 weeks)(Charles River). Growth factor reduced matrigel (0.5 ml) (BD Biosciences) was injected into the subcutaneous space on the dorsal side of mice on both the left and right flank. […] Mice were sacrificed 7 days post-implantation. Matrigel plugs were excised and processed for histological analysis. Paraffin sections (5 um) were stained with Hematoxylin, Phloxine and Saffron (HPS) or anti-CD31 (PECAM, Abcam, Cambridge, UK). Vascular ingrowth was scored in a double blinded fashion and quantified using the following method: every individual section was scored for the degree of ingrowth, using five different categories of ingrowth (1=minimal ingrowth at the border of the plug, 5=capillary ingrowth throughout the total plug), and the mean ingrowth score per group was defined (6 sections per plug, 7 mice per group). The endothelial nature of the infiltrating cells was confirmed by the CD31 staining,
Data was analyzed using one-way ANOVA followed by Tukey's multiple comparison's test (P<0,05). For the analysis of the ingrowth in the matrigel plug statistical analysis was performed using ANOVA and unpaired T test.

[3] = 200 µM PHE, compared to DFO and hypoxia

Row | Structure (SMILES) | VEGF secretion (MSCs [1]) [pg/mL] | secretion of IL-8 (MSCs [1]) [pg/mL] | expression of Il-8, VEGF, KDR and Foxc2 (MSCs [2]) | VEGF expression (MSCs [2]) | capillary ingrowth (male C57/BL6 mice) | secretion of basic fibroblast growth factor (bFGF) (MSCs [1]; [3]) | secretion of growth-colony stimulating factor (G-CSF) (MSCs [1]; [3])
1 | CC(=O)N(O)CCCCCNC(=O)CCC(=O)N(O)CCCCCNC(=O)CCC(=O)N(O)CCCCCN [DFO, reference compound] | 140 | 15 to 25 | returned to basal levels | comparable to non-treated cells | significantly increased capillary ingrowth |  | 
2 | c1cnc2c(c1)ccc1cccnc12 [PHE, 1, 10-phenanthroline] | 65 | 300 to 500 | still significantly increased | still highly expressed | significantly increased capillary ingrowth | reduced | reduced
